# Patent publication US20240238239A1, “METHODS AND COMPOSITIONS FOR PO[…] CELL THERAPIES” (Ojai Energetics PBC, priority 2016, published 2024)
# System: mice with spinal cord injuries
# Experiment: Neural stem cell treatment after spinal cord injury (BMS scores, rotarod treadmill tests)
# Format: in vivo, mouse
# Settings: neural stem cells pre-treated with cannabidiol 1-50 μM for 10 days plus diet supplemented with microencapsulated hemp oil composition; combined treatment
# Description: Mouse neural stem cells expressing green fluorescent protein (GFP) under the control of a constitutive promoter are treated with either cannabidiol (1 μM, 5 μM, 10 μM or 50 μM) or vehicle control for 10 days. The cells are then transplanted directly into the spinal cords of mice with spinal cord injuries. Mice are maintained on a control diet or a diet supplemented with a microencapsulated hemp oil composition comprising cannabinoids, including cannabidiol, at concentrations similar to those used in the cell culture media. Mice are monitored daily for signs of spinal cord recovery evaluations of locomotor function based on Basso Mouse Scale (BMS) scores, a locomotor rating scale based on the frequency analyses of seven locomotor categories, and rotarod treadmill tests. Two months after the stem cell treatment the mice are sacrificed and the spinal cords are histologically examined.
smiles,measurement,value
C=C(C)[C@@H]1CCC(C)=C[C@H]1c1c(O)cc(CCCCC)cc1O [cannabidiol],spinal cord recovery (locomotor function),more rapid and more robust recovery
